Where two headings read alike, the source gives them in different places.
Target: human CB2R (Homo sapiens, UniProt P34972)
Assay: CB2R mediated modulation of cAMP synthesis
Format: cell-based
Protocol: B. CB2R Mediated Modulation of cAMP Synthesis:
Compounds of the invention were evaluated for their CB2 agonist or inverse agonistic activity in accordance with the following experimental method.
CHO cells expressing human CB2R (Euroscreen) were plated at a density of 5000 cells per well in 384 well plates and incubated overnight at 37° C. After removing the media, the cells were treated with test compounds diluted in stimulation buffer containing 1 mM IBMX, 0.25% BSA and 10 uM Forskolin. The assay was incubated for 30 minutes at 37° C. Cells were lysed and the cAMP concentration was measured using DiscoverX-XS cAMP kit, following the manufacturer's protocol. In this setting, agonists will decrease forskolin induced production of cAMP while inverse agonists will further increase forskolin induced production of cAMP. EC50 of agonists were calculated as follows. The maximal amount of cAMP produced by forskolin compared to the level of cAMP inhibited by 1 uM CP55940 is defined as 100%. […] Data was analyzed using a four-parameter logistic model. (Model 205 of XLfit 4.0).

[1] = CHO cells expressing human CB2R, inhibition of forskolin-stimulated cAMP synthesis, mean, read-out: CB2 CAMP @ EC50 nM (mean)

Sequence of human CB2R (P34972 whole entry): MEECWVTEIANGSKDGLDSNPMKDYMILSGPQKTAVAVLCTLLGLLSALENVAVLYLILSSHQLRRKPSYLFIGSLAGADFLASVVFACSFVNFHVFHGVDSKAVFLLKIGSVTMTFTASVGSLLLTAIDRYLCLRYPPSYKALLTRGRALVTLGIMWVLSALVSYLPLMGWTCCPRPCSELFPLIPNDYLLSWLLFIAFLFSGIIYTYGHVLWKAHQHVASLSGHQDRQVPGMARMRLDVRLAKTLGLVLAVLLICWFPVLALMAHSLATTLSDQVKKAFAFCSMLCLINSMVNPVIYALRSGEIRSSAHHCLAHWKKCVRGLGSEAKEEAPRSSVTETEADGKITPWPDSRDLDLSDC

| SMILES | EC50 [nM] | EC50 [1] [nM] |
| --- | --- | --- |
| CC(C)(C)c1cc(NC(=O)[C@@H]2CCCN2C(=O)N2CCS(=O)(=O)CC2)on1 | 97.1 |  |
| CCC(C)c1ccc(NC(=O)[C@@H]2CCC(=O)N2c2ncc(C(F)(F)F)cc2Cl)cc1 (stereo partly shown) | 28.1 |  |
| O=C(NCCN1CCN(c2nccc(C(F)(F)F)n2)CC1)[C@@H]1CCCN1c1ccc(Cl)cc1 | 381 |  |
| CC(C)(C)c1nnc(NC(=O)[C@@H]2CCCN2C2CCCC2(C)C)s1 (stereo partly shown) [1-(2,2-Dimethyl-cyclopentyl)-pyrrolidine-2-carboxylic acid (5-tert-butyl-1,3,4-thiadiazol-2-yl)-amide] | 445 |  |
| CC1(C)CC(CN2CCCC2C(=O)Nc2cc(C(C)(C)C)no2)CCO1 (stereo not shown) [1-(2,2-Dimethyl-tetrahydro-pyran-4-ylmethyl)-pyrrolidine-2-carboxylic acid (3-tert-butyl-isoxazol-5-yl)-amide] | 7.1 |  |
| CC1CCCCC1N1CCC[C@H]1C(=O)Nc1nnc(C(C)(C)C)s1 (stereo partly shown) [1-(2-Methyl-cyclohexyl)-pyrrolidine-2-carboxylic acid (5-tert-butyl-1,3,4-thiadiazol-2-yl)-amide] | 255 |  |
| Cn1nc(C(C)(C)C)cc1NC(=O)C1CCCN1c1ncc(C(F)(F)F)cc1Cl (stereo not shown) [1-(3-Chloro-5-trifluoromethyl-pyridin-2-yl)-pyrrolidine-2-carboxylic acid (5-tert-butyl-2-methyl-2H-pyrazol-3-yl)-amide] | 112 |  |
| CC(C)(C)c1cc(NC(=O)C2CCCN2c2ncc(C(F)(F)F)cc2Cl)no1 (stereo not shown) [1-(3-Chloro-5-trifluoromethyl-pyridin-2-yl)-pyrrolidine-2-carboxylic acid (5-tert-butyl-isoxazol-3-yl)-amide] | 0.0402 |  |
| O=C(Nc1ccc(C(F)(F)F)cn1)C1CCCN1c1ncc(C(F)(F)F)cc1Cl (stereo not shown) [1-(3-Chloro-5-trifluoromethyl-pyridin-2-yl)-pyrrolidine-2-carboxylic acid (5-trifluoromethyl-pyridin-2-yl)-amide] |  | 23.2 |
| CC(C)(C)c1cc(NC(=O)C2CCCN2c2ccc(Cl)cn2)no1 (stereo not shown) [1-(5-Chloro-pyridin-2-yl)-pyrrolidine-2-carboxylic acid (5-tert-butyl-isoxazol-3-yl)-amide] | 0.364 |  |
| O=C(Nc1ccc(C(F)(F)F)cn1)C1CCCN1c1ccc(C(F)(F)F)cn1 (stereo not shown) [1-(5-Trifluoromethyl-pyridin-2-yl)-pyrrolidine-2-carboxylic acid (5-trifluoromethyl-pyridin-2-yl)-amide] | 328 |  |
| CC(C)(C)c1cc(NC(=O)[C@@H]2CCCN2CC2CCCCO2)on1 (stereo partly shown) [1-(Tetrahydro-pyran-2-ylmethyl)-pyrrolidine-2-carboxylic acid (3-tert-butyl-isoxazol-5-yl)-amide] | 0.172 |  |
| CC(C)N1CCCC1C(=O)Nc1cc(C(C)(C)C)on1 (stereo not shown) [1-isopropyl-pyrrolidine-2-carboxylic acid (5-tert-butyl-isoxazol-3-yl)-amide] | 30.3 |  |
| CCC(C)N1CCC[C@H]1C(=O)Nc1nnc(C(C)(C)C)s1 (stereo partly shown) [1-sec-Butyl-pyrrolidine-2-carboxylic acid (5-tert-butyl-1,3,4-thiadiazol-2-yl)-amide] | 390 |  |
| CC(C)(C)OC(=O)CCN1CCC[C@H]1C(=O)Nc1cc(C(C)(C)C)no1 [3-[(S)-2-(3-tert-Butyl-isoxazol-5-ylcarbamoyl)-pyrrolidin-l-yl]-propionic acid tert-butyl ester] |  | 20 |
| CC(C)(C)c1cc(NC(=O)[C@@H]2C[C@@H](O)CN2Cc2ccc(F)c(F)c2)on1 [(2S,4R)-1-(3,4-Difluoro-benzyl)-4-hydroxy-pyrrolidine-2-carboxylic acid (3-tert-butyl-isoxazol-5-yl)-amide] | 6.88 |  |
| CC(C)(C)c1cc(NC(=O)[C@@H]2C[C@@H](O)CN2Cc2ccc(F)c(F)c2)no1 [(2S,4R)-1-(3,4-Difluoro-benzyl)-4-hydroxy-pyrrolidine-2-carboxylic acid (5-tert-butyl-isoxazol-3-yl)-amide] | 12.3 |  |
| CC(C)(C)c1cc(NC(=O)[C@@H]2C[C@@H](O)CN2c2ncc(C(F)(F)F)cc2Cl)on1 [(2S,4R)-1-(3-Chloro-5-trifluoromethyl-pyridin-2-yl)-4-hydroxy-pyrrolidine-2-carboxylic acid (3-tert-butyl-isoxazol-5-yl)-amide] | 3.25 |  |
| CC(C)(C)c1cc(NC(=O)[C@@H]2C[C@@H](O)CN2c2ncc(C(F)(F)F)cc2Cl)no1 [(2S,4R)-1-(3-Chloro-5-trifluoromethyl-pyridin-2-yl)-4-hydroxy-pyrrolidine-2-carboxylic acid (5-tert-butyl-isoxazol-3-yl)-amide] | 5.04 |  |

| SMILES | EC50 [nM] | EC50 [1] [nM] |
| --- | --- | --- |
| O=C(NCC1CCCCC1)[C@@H]1C[C@@H](O)CN1C(=O)C1CCC(F)(F)CC1 [(2S,4R)-1-(4,4-Difluoro-cyclohexanecarbonyl)-4-hydroxy-pyrrolidine-2-carboxylic acid cyclohexylmethyl-amide] |  | 432 |
| CC(C)(C)c1cc(NC(=O)[C@@H]2C[C@@H](O)CN2c2ccc(Cl)cc2)no1 [(2S,4R)-1-(4-Chloro-phenyl)-4-hydroxy-pyrrolidine-2-carboxylic acid (5-tert-butyl-isoxazol-3-yl)-amide] | 14.4 |  |
| CC(C)(CO)c1cc(NC(=O)[C@@H]2C[C@@H](O)CN2c2ccc(Cl)cc2)on1 [(2S,4R)-1-(4-Chloro-phenyl)-4-hydroxy-pyrrolidine-2-carboxylic acid [3-(2-hydroxy-1,1-dimethyl-ethyl)-isoxazol-5-yl]-amide] | 196 |  |
| COCC(C)(C)c1cc(NC(=O)[C@@H]2C[C@@H](O)CN2c2ccc(Cl)cc2)on1 [(2S,4R)-1-(4-Chloro-phenyl)-4-hydroxy-pyrrolidine-2-carboxylic acid [3-(2-methoxy-1,1-dimethyl-ethyl)-isoxazol-5-yl]-amide] | 87 |  |
| COCC(C)(C)c1cc(NC(=O)[C@@H]2C[C@@H](O)CN2c2ccc(Cl)cc2)no1 [(2S,4R)-1-(4-Chloro-phenyl)-4-hydroxy-pyrrolidine-2-carboxylic acid [5-(2-methoxy-1,1-dimethyl-ethyl)-isoxazol-3-yl]-amide] | 80.9 |  |
| CC(C)(C)c1cc(NC(=O)[C@@H]2C[C@@H](O)CN2C2CCCCC2)no1 [(2S,4R)-1-Cyclohexyl-4-hydroxy-pyrrolidine-2-carboxylic acid (5-tert-butyl-isoxazol-3-yl)-amide] | 4.69 |  |
| CC(C)(C)c1cc(NC(=O)[C@@H]2C[C@@H](O)CN2C2CCCC2)on1 [(2S,4R)-1-Cyclopentyl-4-hydroxy-pyrrolidine-2-carboxylic acid (3-tert-butyl-isoxazol-5-yl)-amide] | 61.9 |  |
| CC(C)(C)c1cc(NC(=O)[C@@H]2C[C@@H](O)CN2C2CCCC2)no1 [(2S,4R)-1-Cyclopentyl-4-hydroxy-pyrrolidine-2-carboxylic acid (5-tert-butyl-isoxazol-3-yl)-amide] | 23.2 |  |
| O=C(Nc1nc(-c2ccccc2)ns1)[C@@H]1C[C@@H](O)CN1c1ccc(C(F)(F)F)cn1 [(2S,4R)-4-Hydroxy-1-(5-trifluoromethyl-pyridin-2-yl)-pyrrolidine-2-carboxylic acid (3-phenyl-1,2,4-thiadiazol-5-yl)-amide] | 357 |  |
| CC(C)(C)c1cc(NC(=O)[C@@H]2C[C@@H](O)CN2c2ccc(C(F)(F)F)cn2)on1 [(2S,4R)-4-Hydroxy-1-(5-trifluoromethyl-pyridin-2-yl)-pyrrolidine-2-carboxylic acid (3-tert-butyl-isoxazol-5-yl)-amide] | 0.433 |  |
| CC(C)(C)c1cc(NC(=O)[C@@H]2C[C@@H](O)CN2c2ccc(C(F)(F)F)cn2)no1 [(2S,4R)-4-Hydroxy-1-(5-trifluoromethyl-pyridin-2-yl)-pyrrolidine-2-carboxylic acid (5-tert-butyl-isoxazol-3-yl)-amide] | 161 |  |
| CC(C)(C)c1cc(NC(=O)[C@@H]2C[C@@H](O)CN2C2CCOCC2)on1 [(2S,4R)-4-Hydroxy-1-(tetrahydro-pyran-4-yl)-pyrrolidine-2-carboxylic acid (3-tert-butyl-isoxazol-5-yl)-amide] | 328 |  |
| CCc1sc(NC(=O)[C@@H]2C[C@@H](O)CN2C2CCOCC2)nc1-c1ccccc1 [(2S,4R)-4-Hydroxy-1-(tetrahydro-pyran-4-yl)-pyrrolidine-2-carboxylic acid (5-ethyl-4-phenyl-thiazol-2-yl)-amide] | 58.7 |  |
| CC(C)(C)c1cc(NC(=O)[C@@H]2C[C@@H](O)CN2C2CCOCC2)no1 [(2S,4R)-4-Hydroxy-1-(tetrahydro-pyran-4-yl)-pyrrolidine-2-carboxylic acid (5-tert-butyl-isoxazol-3-yl)-amide] | 363 |  |
| CC1CC(NC(=O)[C@@H]2C[C@@H](O)CN2CC2CCOCC2)CC(C)(C)C1 (stereo partly drawn) [(2S,4R)-4-Hydroxy-1-(tetrahydro-pyran-4-ylmethyl)-pyrrolidine-2-carboxylic acid (3,3,5-trimethyl-cyclohexyl)-amide] | 219 |  |
| O=C(Nc1nc(-c2ccccc2)ns1)[C@@H]1C[C@@H](O)CN1CC1CCOCC1 [(2S,4R)-4-Hydroxy-1-(tetrahydro-pyran-4-ylmethyl)-pyrrolidine-2-carboxylic acid (3-phenyl-1,2,4-thiadiazol-5-yl)-amide] | 303 |  |
| CCCc1cc(NC(=O)[C@@H]2C[C@@H](O)CN2CC2CCOCC2)on1 [(2S,4R)-4-Hydroxy-1-(tetrahydro-pyran-4-ylmethyl)-pyrrolidine-2-carboxylic acid (3-propyl-isoxazol-5-yl)-amide] |  | 248 |
| O=C(Nc1nc(C2CCCCC2)cs1)[C@@H]1C[C@@H](O)CN1CC1CCOCC1 [(2S,4R)-4-Hydroxy-1-(tetrahydro-pyran-4-ylmethyl)-pyrrolidine-2-carboxylic acid (4-cyclohexyl-thiazol-2-yl)-amide] | 150 |  |

Source: patent US8629157B2, “Pyrrolidine compounds which modulate the CB2 receptor” (Boehringer Ingelheim International GmbH, priority 2009, dated 2014)
